Experimental data reported in patent US20230295182A1, “SPIRO DERIVATIVES OF ALPHA-D-GALACTOPYRANOSIDES” (Idorsia Pharmaceuticals Ltd, priority 2020, published 2023).
pIC50: −log10 of the molar value.

Legend:
human Gal-1 (hGal-1) = human Gal-1 (hGal-1) (Homo sapiens, UniProt P09382); experiment: Competitive binding assay: biotinylated hGal-1 to microplate-adsorbed asialofetuin (ASF); settings: Activities on hGal-1; binding to ASF-coated plates, 3 hours at 4° C.; mean values; read-out: Gal-1 IC50
Procedure: Evaluation of Compound Inhibitory Activity (IC50) The inhibitory activity of compounds is determined in competitive binding assays. […] Alternatively, and preferably, a human Gal-1 version in which all six cysteines are substituted by serines may be used. Briefly, compounds are serially diluted in DMSO (working dilutions). […] Plates are incubated for 3 hours at 4° C., then washed with cold assay buffer (3×50 uL), incubated for 1 hour with 25 μL/well of a streptavidin-peroxidase solution (diluted in assay buffer to 80 ng/mL) at 4° C., followed by further washing steps with assay buffer (3×50 uL). Finally, 25 µL/well of ABTS substrate is added. […] The calculated IC50 values may fluctuate depending on the daily assay performance. Fluctuations of this kind are known to those skilled in the art. IC50 values from several measurements are given as mean values.

human Gal-3 (hGal-3) = human Gal-3 (hGal-3) (Homo sapiens (Human), UniProt P17931); experiment: Competitive binding assay: biotinylated hGal-3 to microplate-adsorbed asialofetuin (ASF); settings: Activity on hGal-3; binding to ASF-coated plates, 3 hours at 4° C.; mean values
Procedure: Evaluation of Compound Inhibitory Activity (IC50)
The inhibitory activity of compounds is determined in competitive binding assays. This spectrophotometric assay measures the binding of biotinylated human Gal-3 (hGal-3) or human Gal-1 (hGal-1), respectively, to a microplate-adsorbed glycoprotein, asialofetuin (ASF) (Proc Natl Acad Sci USA. 2013 Mar. 26; 110(13):5052-7.). Alternatively, and preferably, a human Gal-1 version in which all six cysteines are substituted by serines may be used.
Briefly, compounds are serially diluted in DMSO (working dilutions). ASF-coated 384 well plates are supplemented with 22.8 μL/well of biotinylated hGal-3 or hGal-1 in assay buffer (i.e. 300-1000 ng/mL biotinylated hGal-3 or hGal-1) to which 1.2 µL of compound working dilutions are added and mixed.
Plates are incubated for 3 hours at 4° C., then washed with cold assay buffer (3×50 uL), incubated for 1 hour with 25 μL/well of a streptavidin-peroxidase solution (diluted in assay buffer to 80 ng/mL) at 4° C., followed by further washing steps with assay buffer (3×50 uL). Finally, 25 µL/well of ABTS substrate is added.
The calculated IC50 values may fluctuate depending on the daily assay performance. Fluctuations of this kind are known to those skilled in the art. IC50 values from several measurements are given as mean values.

human Gal-3 (hGal-3), sequence (P17931 whole entry): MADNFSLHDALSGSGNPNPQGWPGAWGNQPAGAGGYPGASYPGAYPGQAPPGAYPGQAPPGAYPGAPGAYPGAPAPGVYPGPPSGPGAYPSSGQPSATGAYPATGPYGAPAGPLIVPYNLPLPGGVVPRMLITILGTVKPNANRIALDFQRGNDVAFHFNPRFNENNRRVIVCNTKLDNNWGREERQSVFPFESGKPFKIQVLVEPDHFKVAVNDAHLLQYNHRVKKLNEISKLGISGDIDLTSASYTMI
human Gal-1 (hGal-1), sequence (P09382 2-135 limits assumed): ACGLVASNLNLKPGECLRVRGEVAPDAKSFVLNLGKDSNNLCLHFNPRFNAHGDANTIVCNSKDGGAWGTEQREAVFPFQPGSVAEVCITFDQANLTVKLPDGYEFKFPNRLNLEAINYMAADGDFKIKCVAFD

Row | pIC50 (human Gal-1 (hGal-1)) | pIC50 (human Gal-3 (hGal-3)) | Structure (SMILES)
1 | 6.01 | 6.59 | CO[C@@H]1[C@@H](n2cc(-c3cc(F)c(F)c(Cl)c3)nn2)[C@@H](O)[C@@H](CO)O[C@@H]1CC1=NOC2(CCCCC2)C1 [Example 1.31, (2R,3R,4S,5R,6R)-6-((1-oxa-2-azaspiro[4.5]dec-2-en-3-yl)methyl)-4-(4-(3-chloro-4,5-difluorophenyl)-1H-1,2,3-triazol-1-yl)-2-(hydroxymethyl)-5-methoxytetrahydro-2H-pyran-3-ol]
2 | 5.22 | 6.80 | CO[C@@H]1[C@@H](n2cc(-c3ccc(Br)c(F)c3F)nn2)[C@@H](O)[C@@H](CO)O[C@@H]1CC1=NOC2(CCCCC2)C1 [Example 1.17, (2R,3R,4S,5R,6R)-6-((1-oxa-2-azaspiro[4.5]dec-2-en-3-yl)methyl)-4-(4-(4-bromo-2,3-difluorophenyl)-1H-1,2,3-triazol-1-yl)-2-(hydroxymethyl)-5-methoxytetrahydro-2H-pyran-3-ol]
3 | 5.70 | 6.72 | CO[C@@H]1[C@@H](n2cc(-c3cc(F)c(F)c(F)c3)nn2)[C@@H](O)[C@@H](CO)O[C@@H]1CC1=NO[C@]2(CC[C@H](O)CC2)C1 [Example 2.03, (5r,8R)-3-(((2R,3R,4S,5R,6R)-5-hydroxy-6-(hydroxymethyl)-3-methoxy-4-(4-(3,4,5-trifluorophenyl)-1H-1,2,3-triazol-1-yl)tetrahydro-2H-pyran-2-yl)methyl)-1-oxa-2-azaspiro[4.5]dec-2-en-8-ol]
4 | 5.59 | 6.31 | CO[C@@H]1[C@@H](n2cc(-c3ccc(F)c(F)c3F)nn2)[C@@H](O)[C@@H](CO)O[C@@H]1CC1=NOC2(CCC(C(C)(C)O)CC2)C1 (stereo partly drawn) [Example 1.48, (2R,3R,4S,5R,6R)-2-(hydroxymethyl)-6-((8-(2-hydroxypropan-2-yl)-1-oxa-2-azaspiro[4.5]dec-2-en-3-yl)methyl)-5-methoxy-4-(4-(2,3,4-trifluorophenyl)-1H-1,2,3-triazol-1-yl)tetrahydro-2H-pyran-3-ol]
5 | 5.55 | 6.59 | CO[C@@H]1[C@@H](n2cc(-c3ccc(F)c(F)c3F)nn2)[C@@H](O)[C@@H](CO)O[C@@H]1CC1=NO[C@]2(CC[C@H](C(C)(C)O)CC2)C1 [Example 1.52, (2R,3R,4S,5R,6R)-2-(hydroxymethyl)-6-(((5r,8R)-8-(2-hydroxypropan-2-yl)-1-oxa-2-azaspiro[4.5]dec-2-en-3-yl)methyl)-5-methoxy-4-(4-(2,3,4-trifluorophenyl)-1H-1,2,3-triazol-1-yl)tetrahydro-2H-pyran-3-ol]
6 | 5.72 | 7.00 | CO[C@@H]1[C@@H](n2cc(-c3ccc(C)c(F)c3F)nn2)[C@@H](O)[C@@H](CO)O[C@@H]1CC1=NOC2(CCC(C#N)CC2)C1 (stereo partly drawn) [Example 1.51, 3-(((2R,3R,4S,5R,6R)-4-(4-(2,3-difluoro-4-methylphenyl)-1H-1,2,3-triazol-1-yl)-5-hydroxy-6-(hydroxymethyl)-3-methoxytetrahydro-2H-pyran-2-yl)methyl)-1-oxa-2-azaspiro[4.5]dec-2-ene-8-carbonitrile]
7 | 5.59 | 6.41 | CCC(CC)NC1CCC2(CC1)CC(C[C@H]1O[C@H](CO)[C@H](O)[C@H](n3cc(-c4cc(F)c(F)c(F)c4)nn3)[C@H]1OC)=NO2 (stereo partly drawn) [Example 2.14, (2R,3R,4S,5R,6R)-2-(hydroxymethyl)-5-methoxy-6-((8-(pentan-3-ylamino)-1-oxa-2-azaspiro[4.5]dec-2-en-3-yl)methyl)-4-(4-(3,4,5-trifluorophenyl)-1H-1,2,3-triazol-1-yl)tetrahydro-2H-pyran-3-ol]
8 | 5.25 | 6.85 | COC(=O)CO[C@@H]1[C@@H](n2cc(-c3ccc(C)c(F)c3F)nn2)[C@@H](O)[C@@H](CO)O[C@@H]1CC1=NOC2(CCC(F)(F)CC2)C1 [Example 1.72, methyl 2-(((2R,3R,4S,5R,6R)-2-((8,8-difluoro-1-oxa-2-azaspiro[4.5]dec-2-en-3-yl)methyl)-4-(4-(2,3-difluoro-4-methylphenyl)-1H-1,2,3-triazol-1-yl)-5-hydroxy-6-(hydroxymethyl)tetrahydro-2H-pyran-3-yl)oxy)acetate]
9 | 5.27 | 6.70 | CO[C@@H]1[C@@H](n2cc(-c3ccc(C)c(F)c3F)nn2)[C@@H](O)[C@@H](CO)O[C@@H]1CC1=NOC2(CCC(C(C)(C)O)CC2)C1 (stereo partly drawn) [Example 1.54, (2R,3R,4S,5R,6R)-4-(4-(2,3-difluoro-4-methylphenyl)-1H-1,2,3-triazol-1-yl)-2-(hydroxymethyl)-6-((8-(2-hydroxypropan-2-yl)-1-oxa-2-azaspiro[4.5]dec-2-en-3-yl)methyl)-5-methoxytetrahydro-2H-pyran-3-ol]
10 | 5.34 | 6.72 | CO[C@@H]1[C@@H](n2cc(-c3ccc(C)c(F)c3F)nn2)[C@@H](O)[C@@H](CO)O[C@@H]1CC1=NO[C@]2(CC[C@H](C(C)(C)O)CC2)C1 [Example 1.62, (2R,3R,4S,5R,6R)-4-(4-(2,3-difluoro-4-methylphenyl)-1H-1,2,3-triazol-1-yl)-2-(hydroxymethyl)-6-(((5r,8R)-8-(2-hydroxypropan-2-yl)-1-oxa-2-azaspiro[4.5]dec-2-en-3-yl)methyl)-5-methoxytetrahydro-2H-pyran-3-ol]
11 | 4.99 | 6.74 | CO[C@@H]1[C@@H](n2cc(-c3cc(F)c(Cl)c(F)c3)nn2)[C@@H](O)[C@@H](CO)O[C@@H]1CC1=NOC2(CCCCC2)C1 [Example 1.18, (2R,3R,4S,5R,6R)-6-((1-oxa-2-azaspiro[4.5]dec-2-en-3-yl)methyl)-4-(4-(4-chloro-3,5-difluorophenyl)-1H-1,2,3-triazol-1-yl)-2-(hydroxymethyl)-5-methoxytetrahydro-2H-pyran-3-ol]
12 | 5.29 | 6.62 | CNC(=O)CO[C@@H]1[C@@H](n2cc(-c3cc(F)c(F)c(F)c3)nn2)[C@@H](O)[C@@H](CO)O[C@@H]1CC1=NOC2(CCCCC2)C1 [Example 1.70, 2-(((2R,3R,4S,5R,6R)-2-((1-oxa-2-azaspiro[4.5]dec-2-en-3-yl)methyl)-5-hydroxy-6-(hydroxymethyl)-4-(4-(3,4,5-trifluorophenyl)-1H-1,2,3-triazol-1-yl)tetrahydro-2H-pyran-3-yl)oxy)-N-methylacetamide]
13 | 5.96 | 7.46 | CO[C@@H]1[C@@H](n2cc(-c3cc(F)c(F)c(F)c3)nn2)[C@@H](O)[C@@H](CO)O[C@@H]1CC1=NO[C@]2(CC[C@H](NC(=O)OC(C)(C)C)CC2)C1 [Example 1.15, tert-butyl ((5r,8R)-3-(((2R,3R,4S,5R,6R)-5-hydroxy-6-(hydroxymethyl)-3-methoxy-4-(4-(3,4,5-trifluorophenyl)-1H-1,2,3-triazol-1-yl)tetrahydro-2H-pyran-2-yl)methyl)-1-oxa-2-azaspiro[4.5]dec-2-en-8-yl)carbamate]
14 | 5.32 | 6.31 | CO[C@@H]1[C@@H](n2cc(-c3ccc(Cl)c(F)c3F)nn2)[C@@H](O)[C@@H](CO)O[C@@H]1CC1=NOC2(CCN(C(=O)OC(C)(C)C)C2)C1 (mixture of isomers) [Example 1.79, tert-butyl (RS)-3-(((2R,3R,4S,5R,6R)-4-(4-(4-chloro-2,3-difluorophenyl)-1H-1,2,3-triazol-1-yl)-5-hydroxy-6-(hydroxymethyl)-3-methoxytetrahydro-2H-pyran-2-yl)methyl)-1-oxa-2,7-diazaspiro[4.4]non-2-ene-7-carboxylate]
15 | 5.72 | 6.62 | CO[C@@H]1[C@@H](n2cc(-c3cc(F)c(F)c(F)c3)nn2)[C@@H](O)[C@@H](CO)O[C@@H]1CC1=NOC2(CCCCC2)C1 [Example 1.08, (2R,3R,4S,5R,6R)-6-((1-oxa-2-azaspiro[4.5]dec-2-en-3-yl)methyl)-2-(hydroxymethyl)-5-methoxy-4-(4-(3,4,5-trifluorophenyl)-1H-1,2,3-triazol-1-yl)tetrahydro-2H-pyran-3-ol]
16 | 5.85 | 6.68 | CO[C@@H]1[C@@H](n2cc(-c3cc(F)c(F)c(F)c3)nn2)[C@@H](O)[C@@H](CO)O[C@@H]1CC1=NOC2(CCC(NCC(F)(F)F)CC2)C1 (stereo partly drawn) [Example 2.17, (2R,3R,4S,5R,6R)-2-(hydroxymethyl)-5-methoxy-6-((8-((2,2,2-trifluoroethyl)amino)-1-oxa-2-azaspiro[4.5]dec-2-en-3-yl)methyl)-4-(4-(3,4,5-trifluorophenyl)-1H-1,2,3-triazol-1-yl)tetrahydro-2H-pyran-3-ol]
